Laboratory results published in patent US11752125B2, “Anti-neuroinflammatory and protective compounds in Achillea fragrantissima” (THE STATE OF ISRAEL MINISTRY OF AGRICULTURE & RURAL …, priority 2013, dated 2023).

Tests used:
Assay type in all cases: cell-based, rat
[1] = tested on: microglial cells; assay: Viability of LPS-activated microglial cells (MTT); conditions: MTT 20 hr later
Description: Microglial cells were activated with LPS in the presence or absence of different concentrations of 3,5,4′-trihydroxy-6,7,3′-trimethoxyflavone. Cell viability was determined (using MTT) 20 hr later.

[2] = tested on: IL-1β; assay: IL-1β transcripts in LPS-stimulated microglial cells (real-time PCR); conditions: 20 μg/mL; LPS 4.5 ng/mL, 5 h
Description: RNA was extracted by the RNeasy Plus Mini Kit (Qiagen, Hilden, Germany) according to the manufacturer's instructions. Genomic DNA was removed from the RNA samples by using 50 units of RNase-free DNaseI at 37° C. for 1 h. RNA ([…]) was converted to cDNA using the Thermo Scientific Verso cDNA kit (Thermo Fisher Scientific Inc) following the manufacturer's protocol. The cDNA was used for quantitative real-time PCR amplification with TaqMan chemistry (Applied Biosystems) using Rat MMP9, TNFα, IL1β, iNOS, COX2 pre-designed TaqMan Gene Expression Assay from Applied Biosystems (Rn00579162_m1, Rn00562055_m1, Rn00580432_m1, Rn00561646_m1, Rn01483828_m1, respectively). […] All results from three technical replicates were normalized relative to α-Tubulin (Rn01532518.g1) and GAPDH (Rn01775763.g1), respectively, and expressed as relative expression ratios calculated (relative quantity, RQ) using the comparative method and based on the data that were created by the ABI PRISM 7700 Sequence Detection System (using version 1.6 software).
Procedure 23. Measurement of IL-1Beta, TNFalpha, iNOS, COX-2 and MMP-9 Transcripts in LPS-Activated Microglial Cells by Quantitative Real-Time PCR Analysis. • 1. […]
Microglial cells were treated with 20 μg/mL of achillolide A, followed by stimulation with LPS (4.5 ng/mL). […] The results are expressed as percentages relative to LPS-stimulated cells. […]

[3] = tested on: GDNF; assay: GDNF transcript levels in primary astrocytes (real-time PCR); conditions: 24 h treatment
Text: 1. Produce a primary culture of rat brain glial cells according to the method described in “Protective effects of the essential oil of salvia fruticosa and its constituents on astrocytic susceptibility to hydrogen peroxide-induced cell death”. 2009. A. Elmann, S. Mordechay, M. Rindner, O. Larkov, M. Elkabetz, U. Ravid. Journal of agricultural and food chemistry. 57(15):6636-41; 2. Separate astrocytes from other cell types in the culture according to the method described in “Protective effects of the essential oil of salvia fruticosa and its constituents on astrocytic susceptibility to hydrogen peroxide-induced cell death”. 2009. A. Elmann, S. Mordechay, M. Rindner, O. Larkov, M. Elkabetz, U. Ravid. Journal of agricultural and food chemistry. 57(15):6636-41; 3. Plate astrocytes in 6-wells PDL-coated plastic plates at a density of 2×10^6 cells/well, in DMEM/F12 containing 5% FBS, 2 millimolar glutamine, 100 U/ml penicillin, and 100 micrograms/ml streptomycin. 4. Incubate the culture for 24 hr (37° C., 5% CO2); 5. Aspirate medium and add fresh medium to the cells. 6. […]
Astrocytes were treated with achillolide A for 24 h. […] GDNF transcripts were measured using quantitative real time PCR. The results of three technical replicates were normalized to […] and are expressed as relative quantities of GDNF transcripts. […]

SMILES	cytotoxicity to microglial cells [1]	effect on LPS-induced IL-1β transcript levels [2]	effect on GDNF transcript levels [3]
COc1cc(-c2oc3cc(OC)c(OC)c(O)c3c(=O)c2O)ccc1O [TTF, 3,5,4′-trihydroxy-6,7,3′-trimethoxyflavone]	not cytotoxic		
C=C1CCC2=C(CO)C(=O)O[C@H]2/C=C(\C)[C@H](OC(C)=O)CC1=O [achillolide A]		significantly inhibited	increases
